Assay results reported in ChEMBL document CHEMBL2062494, “Synthesis and biochemical evaluation of thiochromanone thiosemicarbazone analogues as inhibitors of cathepsin L” (ACS Med Chem Lett, 2012).
pIC50: −log10 of the molar value.

Columns and labels:
Procathepsin L = Procathepsin L (Homo sapiens, UniProt P07711); experiment: Inhibition of human liver cathepsin L using Z-R-R-AMC as substrate preincubated with compound for 5 mins measured after 20 mins by fluorescence analysis
Cathepsin B = Cathepsin B (Homo sapiens, UniProt P07858); experiment: Inhibition of human liver cathepsin B using Z-R-R-AMC as substrate preincubated with compound for 5 mins measured after 20 mins by fluorescence analysis

Chain of Procathepsin L (P07711 whole entry): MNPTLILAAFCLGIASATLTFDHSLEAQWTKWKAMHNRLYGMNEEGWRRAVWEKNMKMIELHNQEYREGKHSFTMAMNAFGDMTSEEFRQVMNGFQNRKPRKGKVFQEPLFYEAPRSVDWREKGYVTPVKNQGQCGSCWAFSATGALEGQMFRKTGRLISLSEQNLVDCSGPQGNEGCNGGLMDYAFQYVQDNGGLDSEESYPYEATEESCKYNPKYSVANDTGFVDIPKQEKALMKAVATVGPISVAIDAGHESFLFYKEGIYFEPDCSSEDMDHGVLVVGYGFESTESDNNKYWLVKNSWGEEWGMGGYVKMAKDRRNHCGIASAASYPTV

Work on `NC(=S)N/N=C1\CCSc2ccc(Cl)cc21` yielded a pIC50 (Procathepsin L) of 6.64 and a pIC50 (Cathepsin B) of less than 5.00.
With `NC(=S)N/N=C1\CCSc2c(OC(F)(F)F)cccc21` the pIC50 (Procathepsin L) was less than 5.00 and the pIC50 (Cathepsin B) was less than 5.00.
`NC(=S)N/N=C1\CCSc2ccc(F)cc21` showed a pIC50 (Procathepsin L) of 6.13 and a pIC50 (Cathepsin B) of less than 5.00.
Molecule `NC(=S)N/N=C1\CCSc2ccc(Br)cc21` has a pIC50 (Procathepsin L) of 6.82 and a pIC50 (Cathepsin B) of less than 5.00.
In the case of `NC(=S)N/N=C1\CCSc2cc(F)c(F)cc21`, the pIC50 (Procathepsin L) was 7.34 and the pIC50 (Cathepsin B) was less than 5.00.
With `NC(=S)N/N=C1\CCSc2c(F)cc(F)cc21` the pIC50 (Procathepsin L) was 5.82 and the pIC50 (Cathepsin B) was less than 5.00.
In the case of `NC(=S)N/N=C1\CCSc2c(Br)cc(F)cc21`, the pIC50 (Procathepsin L) was less than 5.00 and the pIC50 (Cathepsin B) was less than 5.00.
Work on `NC(=S)N/N=C1\CCSc2c(F)cc(Br)cc21` yielded a pIC50 (Procathepsin L) of 6.36 and a pIC50 (Cathepsin B) of less than 5.00.
`Cc1ccc2c(c1)/C(=N/NC(N)=S)CCS2` gave a pIC50 (Procathepsin L) of 6.67 and a pIC50 (Cathepsin B) of less than 5.00.
`CCc1ccc2c(c1)/C(=N/NC(N)=S)CCS2` gave a pIC50 (Procathepsin L) of 5.57 and a pIC50 (Cathepsin B) of less than 5.00.
In the case of `CC(C)c1ccc2c(c1)/C(=N/NC(N)=S)CCS2`, the pIC50 (Procathepsin L) was less than 5.00 and the pIC50 (Cathepsin B) was less than 5.00.
`COc1ccc2c(c1)/C(=N/NC(N)=S)CCS2` was tested, and the pIC50 (Procathepsin L) was less than 5.00 and the pIC50 (Cathepsin B) was less than 5.00.
For `CSc1ccc2c(c1)/C(=N/NC(N)=S)CCS2`, the pIC50 (Procathepsin L) was less than 5.00 and the pIC50 (Cathepsin B) was less than 5.00.
With `NC(=S)N/N=C1\CCSc2ccc(C(F)(F)F)cc21` the pIC50 (Procathepsin L) was 6.55 and the pIC50 (Cathepsin B) was less than 5.00.
`NC(=S)N/N=C1\CCSc2ccc(OC(F)(F)F)cc21` gave a pIC50 (Procathepsin L) of 6.59 and a pIC50 (Cathepsin B) of less than 5.00.
Work on `NC(=S)N/N=C1\CCSc2ccc(O)cc21` yielded a pIC50 (Procathepsin L) of less than 5.00 and a pIC50 (Cathepsin B) of less than 5.00.
With `NC(=S)N/N=C1\CCSc2ccc([N+](=O)[O-])cc21` the pIC50 (Procathepsin L) was 7.17 and the pIC50 (Cathepsin B) was less than 5.00.
`CC(=O)Nc1ccc2c(c1)/C(=N/NC(N)=S)CCS2` gave a pIC50 (Procathepsin L) of less than 5.00 and a pIC50 (Cathepsin B) of less than 5.00.
`NC(=S)N/N=C1\CCSc2ccc3ccccc3c21` showed a pIC50 (Procathepsin L) of less than 5.00 and a pIC50 (Cathepsin B) of less than 5.00.
In the case of `NC(=S)N/N=C1\CCS(=O)(=O)c2ccc(F)cc21`, the pIC50 (Procathepsin L) was less than 5.00 and the pIC50 (Cathepsin B) was less than 5.00.
For `NC(=S)N/N=C1\CCS(=O)(=O)c2ccc(Cl)cc21`, the pIC50 (Procathepsin L) was less than 5.00 and the pIC50 (Cathepsin B) was less than 5.00.
`NC(=S)N/N=C1\CCS(=O)(=O)c2cc(F)c(F)cc21` was tested, and the pIC50 (Procathepsin L) was 5.44 and the pIC50 (Cathepsin B) was less than 5.00.
Molecule `NC(=S)N/N=C1\CCS(=O)(=O)c2c(F)cc(F)cc21` has a pIC50 (Procathepsin L) of less than 5.00 and a pIC50 (Cathepsin B) of less than 5.00.
Molecule `NC(=S)N/N=C1\CCS(=O)(=O)c2c(Br)cc(F)cc21` has a pIC50 (Procathepsin L) of less than 5.00 and a pIC50 (Cathepsin B) of less than 5.00.
With `NC(=S)N/N=C1\CCS(=O)(=O)c2c(F)cc(Br)cc21` the pIC50 (Procathepsin L) was 5.95 and the pIC50 (Cathepsin B) was less than 5.00.
`Cc1ccc2c(c1)/C(=N/NC(N)=S)CCS2(=O)=O` gave a pIC50 (Procathepsin L) of less than 5.00 and a pIC50 (Cathepsin B) of less than 5.00.
`CCc1ccc2c(c1)/C(=N/NC(N)=S)CCS2(=O)=O` gave a pIC50 (Procathepsin L) of 5.19 and a pIC50 (Cathepsin B) of less than 5.00.
With `CC(C)c1ccc2c(c1)/C(=N/NC(N)=S)CCS2(=O)=O` the pIC50 (Procathepsin L) was less than 5.00 and the pIC50 (Cathepsin B) was less than 5.00.
In the case of `COc1ccc2c(c1)/C(=N/NC(N)=S)CCS2(=O)=O`, the pIC50 (Procathepsin L) was less than 5.00 and the pIC50 (Cathepsin B) was less than 5.00.
`NC(=S)N/N=C1\CCS(=O)(=O)c2ccc(C(F)(F)F)cc21` showed a pIC50 (Procathepsin L) of 6.59 and a pIC50 (Cathepsin B) of less than 5.00.
For `NC(=S)N/N=C1\CCS(=O)(=O)c2ccc(OC(F)(F)F)cc21`, the pIC50 (Procathepsin L) was 5.40 and the pIC50 (Cathepsin B) was less than 5.00.
`NC(=S)N/N=C1\CCS(=O)(=O)c2ccc([N+](=O)[O-])cc21` showed a pIC50 (Procathepsin L) of 6.95 and a pIC50 (Cathepsin B) of less than 5.00.
In the case of `CC(=O)Nc1ccc2c(c1)/C(=N/NC(N)=S)CCS2(=O)=O`, the pIC50 (Procathepsin L) was less than 5.00 and the pIC50 (Cathepsin B) was less than 5.00.
For `NC(=S)N/N=C1\CCS(=O)(=O)c2ccc(Br)cc21`, the pIC50 (Procathepsin L) was 6.24 and the pIC50 (Cathepsin B) was less than 5.00.
`NC(=S)NN=C1CCSc2ccc(N)cc21` (mixture of isomers) was tested, and the pIC50 (Procathepsin L) was less than 5.00 and the pIC50 (Cathepsin B) was less than 5.00.
In the case of `NC(=S)NN=C1CCS(=O)(=O)c2ccc(O)cc21` (mixture of isomers), the pIC50 (Procathepsin L) was less than 5.00 and the pIC50 (Cathepsin B) was less than 5.00.
